Assay results from patent US10669588B2, “Methods for sub-typing and treating cancer” (HI-STEM GGMBH im Deutschen, priority 2014, dated 2020).
Like-named read-outs stand apart in the source and are kept apart here.

Columns and labels:
[1] = tested on: classical and QM-PDA PACO cells; assay: Drug treatment assay, relative cell viability (CellTiterBlue); type: cell-based, human; details: for drug sensitivity after ketoconazole pre-treatment (relative cell viability, activity area): QM-PDA (PACO9) and classical (PACO2), 100 nM ketoconazole pre-treatment for 2 hours vs vehicle, 48 hours; for drug sensitivity (relative cell viability): classical and QM-PDA subtype PACO lines, 1 μM or 10 μM, after 48 hours
Description: (§1) Quantitative results were analyzed by one-way analysis of variance (multiple groups/grouped analysis) and Student's t test (two groups), using GraphPad Prism (Graph Pad Software). Survival analysis was performed using Mantel-Cox log-rank test as well as Cox proportional hazards multivariate analysis using the Statistical Package for the Social Sciences (IPM SPSS software). Additionally, Pearson chi-squared test was used for comparative data analysis, using SPSS. We considered p<0.05 (two-sided) as statistically significant. For GSEA a False Discovery Rate (FDR) of <0.2 was considered statistically significant. Treatment data were evaluated by determining the activity area (Barretina et al., 2012) from each dose response curve by adding max (100-mean response, 0) for every concentration. Activity areas from the same biological replicate were compared by paired t-test. Calculations were performed in R Version 3.1.0 (Chee et al., 2013).

[2] = tested on: drug-resistant sublines of classical (PACO2) and QM-PDA (PACO7) cells; assay: Drug sensitivity of drug-resistant sublines from 8-week treatment; details: for resistance of sublines to the drug used for long-term treatment: PACO2, PACO7 treated with increasing doses over 8 weeks, vs DMSO-control treated parental lines
[3] = tested on: tumors derived from exocrine-like PACO lines (PACO10, PACO14); assay: In vivo drug treatment of subcutaneous shCYP3A5 or shScr PACO tumors; set-up: species or system NSG mice; details: 100 mg/kg oral gavage, 5 days on / 2 days rest, 14 days
Description: Tumors were established by subcutaneously injecting 5×10^5 shCYP3A5 or shScr PACO cells into female NOD.Cg-Prkdc^scid II2rg^tm1Wjl (NSG) mice (n=48) using Matrigel (2 mg/ml) in a total injection volume of 100 μl. After the tumors reached a size of approximately 200 mm^3, mice were randomized into eight groups (n=6 each) for drug administration. Erlotinib was prepared in 0.5% methylcellulose, 0.1% Tween 80 and 99.4% water for injection (WFI). Erlotinib (100 mg/kg) or vehicle were then administrated by oral gavage at 5 consecutive days followed by 2 days of rest, for duration of 14 days. Tumor volume was determined twice weekly by calliper measurements and calculated according to the formula (length×height×width)×(π/6). Tumor growth was calculated for each individual tumor by normalizing to the tumor volume at day 0. After two weeks of treatment, mice were sacrificed and tumors were resected for further analysis.

CYP3A5 [4] = assay: CYP3A5 mRNA (qRT-PCR) and protein (Western blot) expression in PACO cells after drug exposure; type: cell-based, human; details: for CYP3A5 mRNA expression in drug-resistant cell lines: PACO2, PACO7 after 8 weeks of increasing doses, vs control cell lines; for CYP3A5 expression in response to drug: QM-PDA (PACO9) and classical (PACO2) PACO lines, 10 μM drug; for CYP3A5 mRNA and protein expression in response to drug: exocrine-like PACO10, PACO14, 10 μM drug vs basal level
CYP3A4 and CYP3A7 [5] = details: for expression of CYP3A4 and CYP3A7 in drug-resistant cell lines: PACO2, PACO7 after 8 weeks of increasing doses; for expression of CYP3A4 and CYP3A7 in response to drug: PACO2, PACO10, PACO14, PACO9, 10 μM drug
CYP3A5 [6] = assay: Measurement of conversion of erlotinib and dasatinib in cell supernatant (LC-MS/MS); type: in vitro ADME, human; details: 1 μM and 10 μM; for metabolism of drug in the absence of CYP3A5: CYP3A5 siRNA transfected exocrine-like PACO14, PACO18; for conversion of drug (disappearance of unmodified structure from supernatant): exocrine-like PACO14, PACO18, six time points
Description: In brief, the amount of unmodified dasatinib and erlotinib in the supernatant of cells was monitored by quantitative LC-MS/MS analysis on an AB Sciex QTrap 5500 tandem mass spectrometer.
500 μl of reaction media were quenched with 1,000 μL of acetonitrile at each time point and mixed. After centrifugation clear supernatants were pre-diluted with PACO media and acetonitrile at a ratio 1:25. 100 μL of the sample were transferred into a new vial, followed by addition of 10 μL (S)-(−)-Propranolol hydrochloride solution (105 μg/L) and finally vigorously mixed. 10 μL were injected onto column. Calibration and quality control samples were prepared by spiking either dasatinib or erlotinib to the PACO media. The sample was injected onto a PerfectSil Target ODS-3, 3 μm, 100×2.1 mm HPLC column (MZ-Analysentechnik, Mainz, Germany), using an Agilent 1100 (Agilent, Waldbrunn, Germany) binary pump and degasser, with a CTC PAL sampler (CTC Analytics, Zwingen, Switzerland). The column temperature was 35° C. Chromatographic separation was performed by gradient elution at a constant flow rate of 250 μL/min for 15 minutes. The gradient consisted of 20 mM NH4OAc plus 0.1% formic acid (mobile phase A) and 400 mM NH4OAc/methanol/acetonitrile 5:5:90 plus 0.1% formic acid (mobile phase B). The gradient applied was 0.0 min, 70% A/30% B; 1.5 min 70% A/30% B; 3.0 min 5% A/95% B; 11.0 min 5% A/95% B; 11.5 min 70% A/30% B and 15 min 70% A/30% B. The eluate was directed to an AB Sciex QTrap 5500 tandem mass spectrometer (AB Sciex, Darmstadt, Germany) with an electron spray ionization (ESI) source from 4 to 8 min runtime. Mass transitions of 488.1 to 401.1 for dasatinib, 394.0 to 278.1 for erlotinib and 260.1 to 116.1 for (S)-(−)-Propranolol were monitored. […] Nitrogen was produced by a high purity nitrogen generator (CMC Instruments) and applied to curtain, collision and drying gasses. De-clustering potentials, collision energy and collision exit potential were as follows: 26 V, 39 V and 12 V for dasatinib, 16 V, 43 V and 26 V for erlotinib and 61 V, 23 V and 14 V for (S)-(−)-Propranolol.

exocrine-like PACO cells = type: cell-based, human
Description: as §1

SNU5 cells = assay: Paclitaxel sensitivity of gastric cancer cells; type: cell-based, human; details: gastric cancer cell line SNU5
HepG2 cells = assay: Paclitaxel sensitivity of hepatocellular carcinoma cells
CYP3A4 and CYP3A7 [7] = assay: CYP3A4 and CYP3A7 expression in xenografts after paclitaxel treatment in vivo (qRT-PCR); set-up: species or system mice; details: classical subtype (PACO17) xenografts; after 18 days of treatment; vs vehicle
CYP3A5 [8] = assay: CYP3A5 expression in xenografts after paclitaxel treatment in vivo (qRT-PCR, immunohistochemistry); set-up: species or system mice; details: classical subtype (PACO17) xenografts; after 18 days of treatment; vs vehicle
[9] = exocrine-like subtype PACO lines, 1 μM or 10 μM, after 48 hours

Structure (SMILES) | drug sensitivity after ketoconazole pre-treatment (relative cell viability, activity area) [1] | drug sensitivity (relative cell viability) [1] | resistance of sublines to the drug used for long-term treatment [2] | CYP3A5 mRNA expression in drug-resistant cell lines (CYP3A5 [4]) | CYP3A5 expression in response to drug (CYP3A5 [4]) | CYP3A5 mRNA and protein expression in response to drug (CYP3A5 [4]) | expression of CYP3A4 and CYP3A7 in drug-resistant cell lines (CYP3A4 and CYP3A7 [5]) | expression of CYP3A4 and CYP3A7 in response to drug (CYP3A4 and CYP3A7 [5]) | metabolism of drug in the absence of CYP3A5 (CYP3A5 [6]) | conversion of drug (disappearance of unmodified structure from supernatant) (CYP3A5 [6]) | drug sensitivity after CYP3A5 siRNA knockdown (relative cell viability, activity area) (exocrine-like PACO cells) | drug sensitivity (relative cell viability) (exocrine-like PACO cells; [9]) | also measured
C#Cc1cccc(Nc2ncnc3cc(OCCOC)c(OCCOC)cc23)c1 [erlotinib] | remained unchanged | sensitive | significantly higher resistance | significantly higher | did not prompt CYP3A5 expression | strongly induced | not detectable | not induced | completely abolished | rapid conversion | dramatically sensitized | almost completely resistant | growth of CYP3A5 knockdown tumors ([3]; shCYP3A5 tumors): completely inhibited; effect on growth of control tumors ([3]; shScr control tumors): no effect; drug sensitivity after ketoconazole pre-treatment (relative cell viability, activity area) (exocrine-like PACO cells; exocrine-like (PACO14), 100 nM ketoconazole pre-treatment for 2 hours vs vehicle, 48 hours): significantly more sensitive
CC(=O)N1CCN(c2ccc(OCC3COC(Cn4ccnc4)(c4ccc(Cl)cc4Cl)O3)cc2)CC1 (stereo not drawn) [ketoconazole] |  |  |  |  |  |  |  |  |  |  |  |  | sensitization to paclitaxel by inhibition of CYP activity (SNU5 cells): strongly sensitized; sensitization of paclitaxel-resistant cell lines by co-treatment ([2]; paclitaxel-resistant PACO2 and PACO7 sublines, co-treatment with paclitaxel): comparable sensitization; sensitization to paclitaxel by inhibition of CYP function (HepG2 cells; HepG2 cells, compared with CYP3A5 knockdown): even stronger sensitization
Cc1nc(Nc2ncc(C(=O)Nc3c(C)cccc3Cl)s2)cc(N2CCN(CCO)CC2)n1 [dasatinib] |  |  |  | significantly higher | did not prompt CYP3A5 expression | strongly induced | not detectable | not induced | completely abolished | rapid conversion | dramatically sensitized |  | 
CC(=O)O[C@H]1C(=O)[C@@]2(C)[C@H]([C@H](OC(=O)c3ccccc3)[C@]3(O)C[C@H](OC(=O)[C@H](O)[C@@H](NC(=O)c4ccccc4)c4ccccc4)C(C)=C1C3(C)C)[C@]1(OC(C)=O)CO[C@@H]1C[C@@H]2O [paclitaxel] |  |  | significantly higher resistance | significantly higher |  |  | not detectable |  |  |  |  |  | expression of CYP3A4 and CYP3A7 in treated xenografts (CYP3A4 and CYP3A7 [7]): not upregulated; sensitivity to drug (HepG2 cells; HepG2 cells treated with non-targeting control siRNA): almost completely resistant; sensitivity to drug after knockdown of CYP3A5 (HepG2 cells; HepG2 cells, siRNA-mediated knockdown of CYP3A5): significantly sensitized; CYP3A5 expression in treated xenografts (CYP3A5 [8]): upregulation of CYP3A5
CCc1c2c(nc3ccc(OC(=O)N4CCC(N5CCCCC5)CC4)cc13)-c1cc3c(c(=O)n1C2)COC(=O)[C@]3(O)CC [irinotecan] |  |  |  |  |  |  |  |  |  |  |  |  | drug sensitivity after knockdown of CYP3A5 (exocrine-like PACO cells): sensitive; drug sensitivity (relative cell viability) (exocrine-like PACO cells; exocrine-like subtype compared to the other two subtypes, 1 μM and 10 μM, 48 h and 7 d): highly resistant
Nc1ccn([C@@H]2O[C@H](CO)[C@@H](O)C2(F)F)c(=O)n1 [gemcitabine] | remained unchanged | sensitive |  |  | did not prompt CYP3A5 expression | did not lead to the induction of CYP3A5 |  | not induced |  |  | remained unchanged | almost completely resistant | 
